Measurements from publication PMC5433508 (Chemical Science, 2017).

System: MDA-MB-231 cells
Experiment: MTT cell viability assay, MDA-MB-231
Type: cell-based, human
Settings: co-treatment with LYN-1604 for 24 h

## CNC(=O)c1ccccc1Oc1nc(Nc2cc(OC)c(OC)c(OC)c2)ncc1Br [SBI-0206965]
  effect on LYN-1604-induced cell death: decrease LYN-1604-induced cell death
